Source: the supplement of paper PMC6965134
± gives the standard deviation of the averaged measurements.

Assay: TIMS collisional cross section (CCS, N2) of the lipid ion; higher = larger ion cross section
Details: ionization mode: positive, one isomer drawn

| SMILES | TIMS collisional cross section (sample type: HeLa) [Å²] | TIMS collisional cross section (sample type: plasma) [Å²] | TIMS collisional cross section (sample type: Liver) [Å²] |
| --- | --- | --- | --- |
| CCCCCC/C=C\CCCCCCCC(=O)O[C@@H](COC(=O)CCCCCCC/C=C\CCCCCCC)COC(=O)CCCCCCCCCCCCC [TG 14:0_16:1_17:1] (ion (formula + adduct): [C50H92O6+NH4] 1+) | 307.1 | 307.3 |  |
| CCCCCC/C=C\CCCCCCCC(=O)O[C@@H](COC(=O)CCCCCCC/C=C\CCCCCCCC)COC(=O)CCCCCCCCCCCCC [TG 14:0_16:1_18:1] (ion (formula + adduct): [C51H94O6+NH4] 1+) | 309.3 | 309.45 ± 0.071 | 310.3 |
| CCCCC/C=C\C/C=C\CCCCCCCC(=O)OC[C@@H](COC(=O)CCCCCCCCCCCCC)OC(=O)CCCCCCC/C=C\CCCCCC [TG 14:0_16:1_18:2] (ion (formula + adduct): [C51H92O6+NH4] 1+) |  | 307.8 ± 0.92 | 306.1 |
| CCCCC/C=C\C/C=C\C/C=C\C/C=C\CCCC(=O)OC[C@@H](COC(=O)CCCCCCCCCCCCC)OC(=O)CCCCCCC/C=C\CCCCCC [TG 14:0_16:1_20:4] (ion (formula + adduct): [C53H92O6+NH4] 1+) | 311 |  |  |
| CC/C=C\C/C=C\C/C=C\C/C=C\C/C=C\CCCC(=O)OC[C@@H](COC(=O)CCCCCCCCCCCCC)OC(=O)CCCCCCC/C=C\CCCCCC [TG 14:0_16:1_20:5] (ion (formula + adduct): [C53H90O6+NH4] 1+) | 310.6 |  |  |
| CC/C=C\C/C=C\C/C=C\C/C=C\C/C=C\C/C=C\CCC(=O)OC[C@@H](COC(=O)CCCCCCCCCCCCC)OC(=O)CCCCCCC/C=C\CCCCCC [TG 14:0_16:1_22:6] (ion (formula + adduct): [C55H92O6+NH4] 1+) | 315 |  |  |
| CCCCCCCC/C=C\CCCCCCCC(=O)OC[C@@H](COC(=O)CCCCCCCCCCCCC)OC(=O)CCCCCCCCCCCCCCCC [TG 14:0_17:0_18:1] (ion (formula + adduct): [C52H98O6+NH4] 1+) |  |  | 315.3 |
| CCCCCCC/C=C\CCCCCCCC(=O)O[C@@H](COC(=O)CCCCCCC/C=C\CCCCCCCC)COC(=O)CCCCCCCCCCCCC [TG 14:0_17:1_18:1] (ion (formula + adduct): [C52H96O6+NH4] 1+) | 312.9 |  | 313.6 |
| CCCCCCCCCCCCCCCCCCCC(=O)OC[C@@H](COC(=O)CCCCCCCCCCCCC)OC(=O)CCCCCCCCCCCCCCCCC [TG 14:0_18:0_20:0] (ion (formula + adduct): [C55H106O6+NH4] 1+) | 326.4 | 326.1 |  |
| CCCCCCCC/C=C\CCCCCCCC(=O)OC[C@@H](COC(=O)CCCCCCCCCCCCC)OC(=O)CCCCCCC/C=C\CCCCCCCC [TG 14:0_18:1_18:1] (ion (formula + adduct): [C53H98O6+NH4] 1+) |  |  | 315.3 |
| CCCCC/C=C\C/C=C\CCCCCCCC(=O)OC[C@@H](COC(=O)CCCCCCCCCCCCC)OC(=O)CCCCCCC/C=C\CCCCCCCC [TG 14:0_18:1_18:2] (ion (formula + adduct): [C53H96O6+NH4] 1+) |  |  | 312.9 |
| CCCCCCCC/C=C\CCCCCCCCCC(=O)OC[C@@H](COC(=O)CCCCCCCCCCCCC)OC(=O)CCCCCCC/C=C\CCCCCCCC [TG 14:0_18:1_20:1] (ion (formula + adduct): [C55H102O6+NH4] 1+) | 322.3 |  | 322.4 |
| CCCCC/C=C\C/C=C\CCCCCCCCCC(=O)OC[C@@H](COC(=O)CCCCCCCCCCCCC)OC(=O)CCCCCCC/C=C\CCCCCCCC [TG 14:0_18:1_20:2] (ion (formula + adduct): [C55H100O6+NH4] 1+) | 320 |  | 320.5 |
| CCCCC/C=C\C/C=C\C/C=C\CCCCC(=O)OC[C@@H](COC(=O)CCCCCCCCCCCCC)OC(=O)CCCCCCC/C=C\C/C=C\CCCCC [TG 14:0_18:2_18:3] (ion (formula + adduct): [C53H92O6+NH4] 1+) |  | 309.2 | 308.7 |
| CC/C=C\C/C=C\C/C=C\C/C=C\C/C=C\CCCC(=O)OC[C@@H](COC(=O)CCCCCCCCCCCCC)OC(=O)CCCCCCC/C=C\C/C=C\CCCCC [TG 14:0_18:2_20:5] (ion (formula + adduct): [C55H92O6+NH4] 1+) |  |  | 312.4 |
| CCCC/C=C\CCCCCCCC(=O)OC[C@H](COC(=O)CCCCCCC/C=C\CCCCCC)OC(=O)CCCCCCC/C=C\CCCC [TG 14:1_14:1_16:1] (ion (formula + adduct): [C47H84O6+NH4] 1+) | 294.6 |  | 291.2 |
| CCCC/C=C\CCCCCCCC(=O)OC[C@H](COC(=O)CCCCCCC/C=C\C/C=C\CCCCC)OC(=O)CCCCCCC/C=C\CCCC [TG 14:1_14:1_18:2] (ion (formula + adduct): [C49H86O6+NH4] 1+) |  |  | 296.3 |

| SMILES | TIMS collisional cross section (sample type: HeLa) [Å²] | TIMS collisional cross section (sample type: plasma) [Å²] | TIMS collisional cross section (sample type: Liver) [Å²] |
| --- | --- | --- | --- |
| CCCC/C=C\CCCCCCCC(=O)OC[C@H](COC(=O)CCCCCCC/C=C\CCCCCC)OC(=O)CCCCCCCCCCCCCC [TG 14:1_15:0_16:1] (ion (formula + adduct): [C48H88O6+NH4] 1+) | 300.7 | 300.5 | 300.3 |
| CCCC/C=C\CCCCCCCC(=O)OC[C@H](COC(=O)CCCCCCC/C=C\CCCCCC)OC(=O)CCCCCCC/C=C\CCCCC [TG 14:1_15:1_16:1] (ion (formula + adduct): [C48H86O6+NH4] 1+) | 298.2 |  | 296 |
| CCCC/C=C\CCCCCCCC(=O)OC[C@H](COC(=O)CCCCCCC/C=C\CCCCCC)OC(=O)CCCCCCCCCCCCCCC [TG 14:1_16:0_16:1] (ion (formula + adduct): [C49H90O6+NH4] 1+) | 303.9 ± 0.85 | 303.9 ± 0.28 | 302.9 |
| CCCC/C=C\CCCCCCCC(=O)OC[C@H](COC(=O)CCCCCCC/C=C\CCCCCC)OC(=O)CCCCCCC/C=C\CCCCCC [TG 14:1_16:1_16:1] (ion (formula + adduct): [C49H88O6+NH4] 1+) | 301.5 |  | 301.9 |
| CCCC/C=C\CCCCCCCC(=O)OC[C@H](COC(=O)CCCCCCC/C=C\CCCCCCC)OC(=O)CCCCCCC/C=C\CCCCCC [TG 14:1_16:1_17:1] (ion (formula + adduct): [C50H90O6+NH4] 1+) |  |  | 305.4 |
| CCCC/C=C\CCCCCCCC(=O)OC[C@H](COC(=O)CCCCCCCCCCCCCCCCC)OC(=O)CCCCCCC/C=C\CCCCCC [TG 14:1_16:1_18:0] (ion (formula + adduct): [C51H94O6+NH4] 1+) | 309.6 |  |  |
| CCCC/C=C\CCCCCCCC(=O)OC[C@H](COC(=O)CCCCCCC/C=C\CCCCCCCC)OC(=O)CCCCCCC/C=C\CCCCCC [TG 14:1_16:1_18:1] (ion (formula + adduct): [C51H92O6+NH4] 1+) | 307.85 ± 1.2 | 307 | 307.7 |
| CCCC/C=C\CCCCCCCC(=O)OC[C@H](COC(=O)CCCCCCC/C=C\C/C=C\CCCCC)OC(=O)CCCCCCC/C=C\CCCCCC [TG 14:1_16:1_18:2] (ion (formula + adduct): [C51H90O6+NH4] 1+) | 306.1 | 304.5 | 304.7 |
| CCCC/C=C\CCCCCCCC(=O)OC[C@H](COC(=O)CCCCCCC/C=C\C/C=C\CCCCC)OC(=O)CCCCCCC/C=C\CCCCCCC [TG 14:1_17:1_18:2] (ion (formula + adduct): [C52H92O6+NH4] 1+) |  | 308.6 |  |
| CCCCCCCCCCCCCCCC(=O)OC[C@@H](COC(=O)CCCCCCCCCCCCCC)OC(=O)CCCCCCCCCCCCCC [TG 15:0_15:0_16:0] (ion (formula + adduct): [C49H94O6+NH4] 1+) | 308 |  |  |
| CCCCCC/C=C\CCCCCCCC(=O)OC[C@@H](COC(=O)CCCCCCCCCCCCCC)OC(=O)CCCCCCCCCCCCCC [TG 15:0_15:0_16:1] (ion (formula + adduct): [C49H92O6+NH4] 1+) | 305.9 |  |  |
| CCCCC/C=C\CCCCCCCC(=O)O[C@H](COC(=O)CCCCCCCCCCCCCC)COC(=O)CCCCCCCCCCCCCCC [TG 15:0_15:1_16:0] (ion (formula + adduct): [C49H92O6+NH4] 1+) |  |  | 305.9 |
| CCCCCCCCCCCCCCCC(=O)OC[C@@H](COC(=O)CCCCCCCCCCCCCC)OC(=O)CCCCCCCCCCCCCCC [TG 15:0_16:0_16:0] (ion (formula + adduct): [C50H96O6+NH4] 1+) | 311.5 | 311.3 ± 0.14 |  |
| CCCCCC/C=C\CCCCCCCC(=O)OC[C@@H](COC(=O)CCCCCCCCCCCCCC)OC(=O)CCCCCCCCCCCCCCC [TG 15:0_16:0_16:1] (ion (formula + adduct): [C50H94O6+NH4] 1+) |  | 309.2 | 309.02 ± 0.29 |
| CCCCCCCCCCCCCCCCC(=O)OC[C@@H](COC(=O)CCCCCCCCCCCCCC)OC(=O)CCCCCCCCCCCCCCC [TG 15:0_16:0_17:0] (ion (formula + adduct): [C51H98O6+NH4] 1+) | 314.3 | 314.6 ± 0.22 |  |
| CCCCCCC/C=C\CCCCCCCC(=O)OC[C@@H](COC(=O)CCCCCCCCCCCCCC)OC(=O)CCCCCCCCCCCCCCC [TG 15:0_16:0_17:1] (ion (formula + adduct): [C51H96O6+NH4] 1+) |  |  | 311.4 |
| CCCCCCCCCCCCCCCCCC(=O)OC[C@@H](COC(=O)CCCCCCCCCCCCCC)OC(=O)CCCCCCCCCCCCCCC [TG 15:0_16:0_18:0] (ion (formula + adduct): [C52H100O6+NH4] 1+) |  | 317.33 ± 0.31 |  |
